{
  "source": "ChEMBL document CHEMBL5678795",
  "about": "(Eur J Pharmacol, 1999)",
  "key": {"[1]": {"biological_target": "T1, Endothelin-1 receptor (Homo sapiens) (UniProt P25101)", "T1 sequence (whole entry)": "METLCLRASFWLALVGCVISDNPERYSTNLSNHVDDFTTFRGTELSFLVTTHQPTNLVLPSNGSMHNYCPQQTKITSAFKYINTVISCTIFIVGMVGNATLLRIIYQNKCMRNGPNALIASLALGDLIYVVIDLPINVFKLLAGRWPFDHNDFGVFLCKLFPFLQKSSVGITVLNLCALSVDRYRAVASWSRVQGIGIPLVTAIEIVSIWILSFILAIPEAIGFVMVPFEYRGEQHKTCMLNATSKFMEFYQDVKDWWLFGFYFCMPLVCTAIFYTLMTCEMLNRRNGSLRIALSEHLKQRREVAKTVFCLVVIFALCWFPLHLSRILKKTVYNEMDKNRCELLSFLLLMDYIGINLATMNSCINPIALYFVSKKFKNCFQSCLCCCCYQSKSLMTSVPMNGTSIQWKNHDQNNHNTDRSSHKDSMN", "assay": "Displacement of [125I]endothelin-1 from human recombinant endothelin ETA receptor at 10 uM incubated for 120 mins by radiometric based scintillation counter assay relative to control", "conditions": "filed as antagonist"}, "[2]": {"biological_target": "5-hydroxytryptamine receptor 2C (Homo sapiens) (UniProt P28335)", "sequence (P28335 whole entry)": "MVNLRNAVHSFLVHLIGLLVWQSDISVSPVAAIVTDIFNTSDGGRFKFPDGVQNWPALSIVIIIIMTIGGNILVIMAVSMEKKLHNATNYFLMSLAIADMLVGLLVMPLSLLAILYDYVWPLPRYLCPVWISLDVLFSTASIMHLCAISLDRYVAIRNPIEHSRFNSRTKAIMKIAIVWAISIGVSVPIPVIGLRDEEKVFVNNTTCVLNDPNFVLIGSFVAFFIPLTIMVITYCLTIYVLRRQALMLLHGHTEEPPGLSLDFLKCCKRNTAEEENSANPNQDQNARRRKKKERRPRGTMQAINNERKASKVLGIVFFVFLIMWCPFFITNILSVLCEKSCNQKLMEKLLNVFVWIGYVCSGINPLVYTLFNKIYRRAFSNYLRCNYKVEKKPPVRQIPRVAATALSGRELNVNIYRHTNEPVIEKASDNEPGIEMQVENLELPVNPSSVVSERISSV", "assay": "Displacement of [3H]mesulergine from human recombinant 5-Hydroxytryptamine 2C at 10 uM incubated for 120 mins by radiometric based scintillation counter assay relative to control"}, "[3]": {"biological_target": "Sodium-dependent dopamine transporter (Homo sapiens) (UniProt Q01959)", "assay": "Displacement of [3H]BTCP from human recombinant dopamine receptor at 10 uM incubated for 120 mins by radiometric based scintillation counter assay relative to control"}, "[4]": {"biological_target": "D(4) dopamine receptor (Homo sapiens) (UniProt P21917)", "sequence (P21917 whole entry)": "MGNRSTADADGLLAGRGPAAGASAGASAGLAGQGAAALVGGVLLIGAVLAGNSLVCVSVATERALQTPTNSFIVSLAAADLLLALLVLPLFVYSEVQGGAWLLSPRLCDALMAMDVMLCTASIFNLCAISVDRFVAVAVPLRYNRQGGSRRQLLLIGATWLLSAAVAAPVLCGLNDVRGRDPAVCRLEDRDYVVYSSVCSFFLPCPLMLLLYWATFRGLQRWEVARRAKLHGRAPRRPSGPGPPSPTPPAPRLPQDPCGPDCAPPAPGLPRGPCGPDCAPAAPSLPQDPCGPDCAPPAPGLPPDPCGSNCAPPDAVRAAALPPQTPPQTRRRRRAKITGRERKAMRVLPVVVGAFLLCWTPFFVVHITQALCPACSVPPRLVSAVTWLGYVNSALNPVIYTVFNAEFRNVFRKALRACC", "assay": "Displacement of [3H]methyl-spiperone from human recombinant dopamine D4 receptor at 10 uM incubated for 60 mins by radiometric based scintillation counter assay relative to control"}, "[5]": {"biological_target": "Cannabinoid receptor 1 (Homo sapiens) (UniProt P21554)", "sequence (P21554 whole entry)": "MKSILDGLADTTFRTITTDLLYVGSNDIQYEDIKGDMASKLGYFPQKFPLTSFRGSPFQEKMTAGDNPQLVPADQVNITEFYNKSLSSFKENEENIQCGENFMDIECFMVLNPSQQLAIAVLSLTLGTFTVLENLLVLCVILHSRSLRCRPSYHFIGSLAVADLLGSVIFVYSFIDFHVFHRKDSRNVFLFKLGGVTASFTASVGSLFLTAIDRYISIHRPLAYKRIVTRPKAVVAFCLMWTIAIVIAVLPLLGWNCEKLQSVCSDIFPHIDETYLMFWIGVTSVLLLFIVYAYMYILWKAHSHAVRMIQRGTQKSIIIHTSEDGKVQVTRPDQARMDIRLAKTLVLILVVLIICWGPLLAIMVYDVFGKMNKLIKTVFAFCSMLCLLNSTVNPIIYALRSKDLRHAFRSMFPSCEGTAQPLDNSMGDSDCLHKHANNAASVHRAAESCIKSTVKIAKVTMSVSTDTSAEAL", "assay": "Displacement of [3H]CP 55940 from human recombinant cannabinoid CB1 receptor at 10 uM incubated for 30 mins by radiometric based scintillation counter assay relative to control"}, "[6]": {"biological_target": "5-hydroxytryptamine receptor 1A (Homo sapiens) (UniProt P08908)", "sequence (P08908 whole entry)": "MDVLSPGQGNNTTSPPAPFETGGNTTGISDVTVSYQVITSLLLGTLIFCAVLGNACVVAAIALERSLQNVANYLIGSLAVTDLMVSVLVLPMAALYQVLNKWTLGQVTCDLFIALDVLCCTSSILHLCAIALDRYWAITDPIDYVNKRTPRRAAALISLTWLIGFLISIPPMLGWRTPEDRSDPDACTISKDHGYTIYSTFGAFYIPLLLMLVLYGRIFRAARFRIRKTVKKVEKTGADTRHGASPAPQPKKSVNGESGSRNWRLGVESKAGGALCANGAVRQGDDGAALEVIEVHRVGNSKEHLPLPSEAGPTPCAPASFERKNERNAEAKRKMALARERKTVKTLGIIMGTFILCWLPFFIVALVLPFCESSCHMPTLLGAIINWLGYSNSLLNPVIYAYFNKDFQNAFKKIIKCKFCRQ", "assay": "Displacement of [3H]8-OH-DPAT from human recombinant 5-Hydroxytryptamine 1A at 10 uM incubated for 60 mins by radiometric based scintillation counter assay relative to control"}, "[7]": {"biological_target": "Delta-type opioid receptor (Homo sapiens) (UniProt P41143)", "sequence (P41143 whole entry)": "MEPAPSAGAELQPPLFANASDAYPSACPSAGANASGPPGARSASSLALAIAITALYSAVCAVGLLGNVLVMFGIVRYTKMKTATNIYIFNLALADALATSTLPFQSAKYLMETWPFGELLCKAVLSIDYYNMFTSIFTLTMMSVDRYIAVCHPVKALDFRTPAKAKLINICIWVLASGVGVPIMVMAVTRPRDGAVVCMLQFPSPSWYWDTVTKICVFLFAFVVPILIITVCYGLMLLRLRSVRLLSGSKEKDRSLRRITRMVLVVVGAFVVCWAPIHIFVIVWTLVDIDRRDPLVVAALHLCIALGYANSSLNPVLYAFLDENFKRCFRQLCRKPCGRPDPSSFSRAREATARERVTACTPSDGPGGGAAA", "assay": "Displacement of [3H]DPDPE from human recombinant delta-Opioid receptor at 10 uM incubated for 60 mins by radiometric based scintillation counter assay relative to control", "conditions": "filed as antagonist"}, "[8]": {"biological_target": "Kappa-type opioid receptor (Homo sapiens) (UniProt P41145)", "sequence (P41145 whole entry)": "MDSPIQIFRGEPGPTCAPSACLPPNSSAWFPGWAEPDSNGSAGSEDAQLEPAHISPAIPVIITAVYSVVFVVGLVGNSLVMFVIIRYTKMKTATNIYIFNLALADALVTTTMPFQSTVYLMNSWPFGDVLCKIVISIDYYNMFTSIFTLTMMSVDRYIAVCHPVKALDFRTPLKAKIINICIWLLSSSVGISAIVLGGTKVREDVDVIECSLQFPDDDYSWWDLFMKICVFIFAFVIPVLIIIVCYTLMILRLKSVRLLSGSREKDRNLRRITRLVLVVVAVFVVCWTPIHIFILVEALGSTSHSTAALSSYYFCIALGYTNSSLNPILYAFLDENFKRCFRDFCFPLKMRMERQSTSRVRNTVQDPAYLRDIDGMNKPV", "assay": "Displacement of [3H]U-69593 from human kappa-Opioid receptor at 10 uM incubated for 60 mins by radiometric based scintillation counter assay relative to control"}, "[9]": {"biological_target": "Beta-1 adrenergic receptor (Homo sapiens) (UniProt P08588)", "sequence (P08588 whole entry, looked up)": "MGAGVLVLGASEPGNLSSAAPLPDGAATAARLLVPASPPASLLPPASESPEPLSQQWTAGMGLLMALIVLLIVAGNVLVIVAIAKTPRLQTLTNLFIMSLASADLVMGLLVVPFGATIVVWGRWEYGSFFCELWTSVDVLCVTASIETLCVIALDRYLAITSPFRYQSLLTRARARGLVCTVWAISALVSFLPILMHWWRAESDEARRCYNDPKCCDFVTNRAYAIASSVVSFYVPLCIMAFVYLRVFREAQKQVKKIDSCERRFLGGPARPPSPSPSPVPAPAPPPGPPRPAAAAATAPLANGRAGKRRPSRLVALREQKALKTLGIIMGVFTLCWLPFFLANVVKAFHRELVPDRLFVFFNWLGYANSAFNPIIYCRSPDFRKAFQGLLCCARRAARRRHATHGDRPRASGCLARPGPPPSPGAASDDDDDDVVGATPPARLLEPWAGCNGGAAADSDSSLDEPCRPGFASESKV", "assay": "Displacement of [3H](-)CGP 12177 from human recombinant beta1-adrenoceptor at 10 uM incubated for 60 mins by radiometric based scintillation counter assay relative to control"}, "[10]": {"biological_target": "Histamine H2 receptor (Homo sapiens) (UniProt P25021)", "sequence (P25021 whole entry)": "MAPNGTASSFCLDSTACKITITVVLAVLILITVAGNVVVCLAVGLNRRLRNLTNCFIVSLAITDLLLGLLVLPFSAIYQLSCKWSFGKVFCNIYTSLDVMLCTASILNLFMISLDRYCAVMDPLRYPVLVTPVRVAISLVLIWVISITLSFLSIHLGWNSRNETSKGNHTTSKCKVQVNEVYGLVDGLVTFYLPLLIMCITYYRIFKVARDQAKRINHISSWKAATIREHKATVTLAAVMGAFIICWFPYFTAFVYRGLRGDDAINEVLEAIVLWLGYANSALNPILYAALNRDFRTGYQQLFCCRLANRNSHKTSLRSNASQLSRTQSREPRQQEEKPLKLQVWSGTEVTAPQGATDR", "assay": "Displacement of [125I]APT from human recombinant histamine H2 receptor at 10 uM incubated for 120 mins by radiometric based scintillation counter assay relative to control"}, "[11]": {"biological_target": "Adenosine receptor A1 (Homo sapiens) (UniProt P30542)", "assay": "Displacement of [3H]DPCPX from human recombinant Adenosine A1 receptor at 10 uM incubated for 60 mins by radiometric based scintillation counter assay relative to control"}, "[12]": {"biological_target": "T2, Endothelin-1 receptor (Rattus norvegicus) (UniProt P26684)", "T2 sequence (whole entry)": "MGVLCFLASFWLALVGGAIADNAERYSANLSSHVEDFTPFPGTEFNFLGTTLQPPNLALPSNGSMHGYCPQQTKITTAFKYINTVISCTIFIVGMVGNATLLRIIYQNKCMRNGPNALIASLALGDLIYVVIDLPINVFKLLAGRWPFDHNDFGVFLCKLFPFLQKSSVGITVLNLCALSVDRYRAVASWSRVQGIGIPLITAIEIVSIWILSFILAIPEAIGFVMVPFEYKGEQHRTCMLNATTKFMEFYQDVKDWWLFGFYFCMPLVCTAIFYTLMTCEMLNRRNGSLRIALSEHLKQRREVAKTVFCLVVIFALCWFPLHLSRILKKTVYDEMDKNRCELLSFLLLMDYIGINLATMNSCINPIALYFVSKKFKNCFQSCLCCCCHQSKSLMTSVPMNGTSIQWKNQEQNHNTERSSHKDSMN", "assay": "In vivo antagonist activity to ETA receptor in endothelin-1 induced Sprague-Dawley rat assessed as inhibition of peak blood pressure administered for 1 to 4 hrs", "assay_type": "functional, organism-based", "conditions": "dose 3-100 mg/kg, route po, time 1-4 hrs"}, "[13]": {"biological_target": "5-hydroxytryptamine receptor 6 (Homo sapiens) (UniProt P50406)", "assay": "Displacement of [3H]LSD from human recombinant 5-Hydroxytryptamine 6 at 10 uM incubated for 120 mins by radiometric based scintillation counter assay relative to control"}, "[14]": {"biological_target": "Cholecystokinin receptor type A (Homo sapiens) (UniProt P32238)", "sequence (P32238 whole entry)": "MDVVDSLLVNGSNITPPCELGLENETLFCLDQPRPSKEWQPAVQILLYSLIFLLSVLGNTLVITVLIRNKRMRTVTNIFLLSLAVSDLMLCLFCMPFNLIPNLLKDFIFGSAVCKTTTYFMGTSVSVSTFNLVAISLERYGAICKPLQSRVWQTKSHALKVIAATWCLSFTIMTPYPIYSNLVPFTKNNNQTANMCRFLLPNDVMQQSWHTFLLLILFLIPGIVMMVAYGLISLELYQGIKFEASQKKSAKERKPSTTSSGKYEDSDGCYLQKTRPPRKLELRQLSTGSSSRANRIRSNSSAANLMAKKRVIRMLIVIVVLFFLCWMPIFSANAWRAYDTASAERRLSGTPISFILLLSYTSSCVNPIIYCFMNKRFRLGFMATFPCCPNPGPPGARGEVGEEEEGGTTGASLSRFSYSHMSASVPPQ", "assay": "Displacement of [125I]CCK-8s from human recombinant cholecystokinin A receptor at 10 uM incubated for 60 mins by radiometric based scintillation counter assay relative to control"}, "[15]": {"assay": "Cmax in cynomolgus monkey at 5 mg/kg, po administered for 12 hrs by HPLC analysis", "assay_type": "ADME, organism-based, Macaca fascicularis", "conditions": "in vivo"}, "[16]": {"biological_target": "Adrenergic receptor alpha-1 (Rattus norvegicus) (UniProt P15823+P23944+P43140)", "assay": "Displacement of [3H]prazosin from rat brain alpha1-adrenoceptor at 10 uM incubated for 60 mins by radiometric based scintillation counter assay relative to control", "assay_type": "tissue-based"}, "[17]": {"biological_target": "Sodium-dependent noradrenaline transporter (Homo sapiens) (UniProt P23975)", "assay": "Inhibition of human norepinephrine expressed in CHO cells at 10 uM incubated for 180 mins by radiometric based scintillation counter assay relative to control", "assay_type": "cell-based"}, "[18]": {"biological_target": "Histamine H1 receptor (Homo sapiens) (UniProt P35367)", "sequence (P35367 whole entry)": "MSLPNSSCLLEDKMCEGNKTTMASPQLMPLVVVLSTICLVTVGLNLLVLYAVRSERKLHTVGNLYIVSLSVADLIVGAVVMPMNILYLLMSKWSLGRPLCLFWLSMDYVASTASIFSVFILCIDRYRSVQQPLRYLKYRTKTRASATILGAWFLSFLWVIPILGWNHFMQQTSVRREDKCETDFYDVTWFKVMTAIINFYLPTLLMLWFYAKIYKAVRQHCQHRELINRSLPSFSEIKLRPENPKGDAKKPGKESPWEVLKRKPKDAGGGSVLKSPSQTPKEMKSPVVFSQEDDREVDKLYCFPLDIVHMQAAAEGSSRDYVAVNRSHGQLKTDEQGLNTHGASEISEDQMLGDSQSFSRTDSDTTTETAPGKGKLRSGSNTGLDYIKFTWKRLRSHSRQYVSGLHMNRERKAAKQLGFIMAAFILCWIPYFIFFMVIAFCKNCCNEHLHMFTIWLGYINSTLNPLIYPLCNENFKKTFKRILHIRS", "assay": "Displacement of [3H]pyrilamine from human recombinant central-type histamine H1 receptor at 10 uM incubated for 60 mins by radiometric based scintillation counter assay relative to control"}, "[19]": {"biological_target": "Gastrin/cholecystokinin type B receptor (Homo sapiens) (UniProt P32239)", "sequence (P32239 whole entry)": "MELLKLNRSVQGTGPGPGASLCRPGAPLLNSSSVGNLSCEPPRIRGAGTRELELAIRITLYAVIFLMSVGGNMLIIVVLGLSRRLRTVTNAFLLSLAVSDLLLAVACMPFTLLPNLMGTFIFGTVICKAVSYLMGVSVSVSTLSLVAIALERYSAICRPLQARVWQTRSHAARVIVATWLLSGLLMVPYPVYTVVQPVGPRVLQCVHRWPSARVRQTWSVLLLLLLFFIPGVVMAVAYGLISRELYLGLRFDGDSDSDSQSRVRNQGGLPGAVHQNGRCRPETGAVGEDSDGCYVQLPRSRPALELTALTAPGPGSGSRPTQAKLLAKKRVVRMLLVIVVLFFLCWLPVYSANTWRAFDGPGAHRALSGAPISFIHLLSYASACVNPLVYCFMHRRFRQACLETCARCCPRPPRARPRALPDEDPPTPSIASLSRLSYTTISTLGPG", "assay": "Displacement of [125I]CCK-8s from human recombinant cholecystokinin B receptor at 10 uM incubated for 60 mins by radiometric based scintillation counter assay relative to control"}, "[20]": {"biological_target": "T2, Endothelin-1 receptor (Rattus norvegicus)", "assay": "In vivo antagonist activity to ETA receptor in endothelin-1 induced Sprague-Dawley rat assessed as reduction of vasopressor response at 30 mg/kg, po administered for 4 to 8 hrs", "assay_type": "functional, organism-based", "conditions": "time 4-8 hrs"}, "[21]": {"assay": "Cmax in Beagle dog at 5 mg/kg, po administered for 12 hrs by HPLC analysis", "assay_type": "ADME, organism-based, Canis lupus familiaris", "conditions": "in vivo"}, "[22]": {"biological_target": "Substance-P receptor (Homo sapiens) (UniProt P25103)", "assay": "Displacement of [125I]-Substance P LYS3 from human Neurokinin-1 receptor at 10 uM incubated for 30 mins by radiometric based scintillation counter assay relative to control"}},
  "note": "Active and inactive are the calls of the source. The rule behind the calls is not given here.",
  "data": [
    {"smiles": "CCCCN(CCCC)C(=O)CN1[C@H](c2cc(OC)c3c(c2)OCO3)C[C@@H](C(=O)O)[C@@H]1CC(C)(C)CCC", "values": [
      {"measurement": "inhibition", "setting": "[1]", "result": 98, "unit": "%"},
      {"measurement": "inhibition", "setting": "[2]", "result": "< 10", "unit": "%"},
      {"measurement": "inhibition", "setting": "[3]", "result": "< 10", "unit": "%"},
      {"measurement": "inhibition", "setting": "[4]", "result": "< 10", "unit": "%"},
      {"measurement": "inhibition", "setting": "[5]", "result": "< 10", "unit": "%"},
      {"measurement": "inhibition", "setting": "[6]", "result": "< 10", "unit": "%"},
      {"measurement": "inhibition", "setting": "[7]", "result": 62, "unit": "%"},
      {"measurement": "inhibition", "setting": "[8]", "result": 28, "unit": "%"},
      {"measurement": "inhibition", "setting": "[9]", "result": "< 10", "unit": "%"},
      {"measurement": "inhibition", "setting": "[10]", "result": "< 10", "unit": "%"},
      {"measurement": "inhibition", "setting": "[11]", "result": 23, "unit": "%"},
      {"measurement": "Activity", "setting": "[12]", "result": "Dose-Dependent Effect"},
      {"measurement": "inhibition", "setting": "[13]", "result": "< 10", "unit": "%"},
      {"measurement": "inhibition", "setting": "[14]", "result": "< 10", "unit": "%"},
      {"measurement": "Cmax", "setting": "[15]", "result": 1100, "unit": "ng/mL"},
      {"measurement": "inhibition", "setting": "[16]", "result": "< 10", "unit": "%"},
      {"measurement": "inhibition", "setting": "[17]", "result": "< 10", "unit": "%"},
      {"measurement": "inhibition", "setting": "[18]", "result": "< 10", "unit": "%"},
      {"measurement": "inhibition", "setting": "[19]", "result": "< 10", "unit": "%"},
      {"measurement": "Activity", "setting": "[20]", "result": "Active"},
      {"measurement": "Cmax", "setting": "[21]", "result": 1970, "unit": "ng/mL"},
      {"measurement": "inhibition", "setting": "[22]", "result": "< 10", "unit": "%"}
    ]}
  ]
}
